This is an account of results in patent US4839374A, “4-((Bicyclic heterocyclyl)-methyl and -hetero)-piperidines” (Janssen Pharmaceutica, N.V., priority 1987, dated 1989).

Where two headings read alike, the source gives them in different places.

In experiment [1] the test system is compound 48/80-induced lethality. Put plainly: Protection of rats from compound 48/80-induced lethality. In kind it is in vivo, rats of an inbred Wistar strain. The note with it: Rattus norvegicus, 4 h, read-out: Compound 48/80 lethality test in rats ED50, s.c. or p.o. 1 h before compound 48/80 0.5 mg/kg i.v.; protection of 50% of animals, survival after 4 hours. The method, boiled down:
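Male inbred Wistar rats (240-260 g), starved overnight, dosed subcutaneously or orally with compound or 0.9% NaCl before compound 48/80 challenge. Survival at 4 hours counted as protection. ED50 in mg/kg is the dose protecting 50% of animals from lethality.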

Experiment [2] relates to effects of serotonin. The experiment in a line: Antagonistic activity on the effects of serotonin in the gastric lesion test (lesions induced by compound 48/80). Particulars: for ED50: Rattus norvegicus, po, read-out: gastric lesion test ED50. The experiment is classed as in vivo, rats of a Wistar inbred strain. As for the experimental part:
Antagonistic activity on the effects of serotonin in the gastric lesion test.
The shock, followed by dead, can be avoided if the rats are pretreated with a classical H 1 antagonist.
Male rats of a Wistar inbred strain, weighing 220-250 g, were starved overnight, water being available ad libitum. The test compounds were administered orally as a solution or as a suspension in aqueous medium. A control rat and a "blank" rat received the test compound. One hour later 5-[4-(diphenylmethyl)1-piperazinylmethyl]-1-methyl-1H-benzimidazole-2-methanol was administered subcutaneously to all rats at the dose of 2.5 mg/kg. […] Four hours after the intravenous injection of compound 48/80, the rats were decapitated and the stomachs were removed. Subsequently the stomachs were inspected for distension and contents (blood, fluid, food) and thoroughly rinsed. The macroscopic lesions were scored from 0 to +++, 0 corresponding to complete absence of visible lesions and the highest score corresponding to reddish rough patches covering more than half the glandular area.
The second column of tables 1-4 show for a number of compounds of formula (I) the doses (in mg/kg body weight) at which the distension of the stomach as well as the lesions in the glandular area of the stomach are completely absent in 50% of the test rats (ED50 -value).

[3] abbreviates: compound 48/80 1 mg/kg i.v., distension and lesions of stomach completely absent in 50% of rats.

For the compound `O=c1[nH]c2ccccc2c(=O)n1CCN1CCC(Cc2nc3ccccc3n2Cc2ccco2)CC1` [Compound 208], the ED50 in experiment [1] is 0.04 mg/kg; in experiment [2], 0.08 mg/kg.
As for `Fc1ccc(Cn2c(CC3CCN(CCn4c(S)nc5cncnc54)CC3)nc3ccccc32)cc1` [Compound 495, 9-[2-[4-[[1-[(4-fluorophenyl)methyl]-1H-benzimidazol-2-yl]methyl]-1-piperidinyl]ethyl]-9H-purine-8-thiol], the ED50 was determined as 0.04 mg/kg in experiment [1] and 0.16 mg/kg in experiment [2] (setting [3]).
As for `Fc1ccc(Cn2c(CC3CCN(CCNc4nccs4)CC3)nc3cccnc32)cc1` [Compound 357], the ED50 came out at 0.02 mg/kg in experiment [1] and 0.63 mg/kg in experiment [2] (setting [3]).
For `Fc1ccc(Cn2c(CC3CCN(CCNc4ncccn4)CC3)nc3ncccc32)cc1` [Compound 348, N-[2-[4[[1-[(4-fluorophenyl)methyl]-1H-imidazo[4,5-b]pyridin-2-yl]methyl]-1-piperidinyl]ethyl]-2-pyrimidinamine], the ED50 in experiment [1] and in experiment [2] was 0.04 mg/kg in each case.
Regarding `COc1ccc(CCN2CCC(Cc3nc4ccccc4n3Cc3ccco3)CC2)cc1` [Compound 229], the values for the ED50 in experiment [1] and in experiment [2] (setting [3]) were 0.04 mg/kg and 0.63 mg/kg, respectively.
With `Cn1cccc1C(=O)NCCN1CCC(Cc2nc3ccccc3n2Cc2ccc(F)cc2)CC1` [Compound 433, N-[2-[4-[[1-[(4-fluorophenyl)methyl]-1H-benzimidazol-2-yl]methyl]-1-piperidinyl]ethyl]-1-methyl-1H-pyrrole-2-carboxamide], the ED50 was found to be 0.01 mg/kg in experiment [1] and 0.16 mg/kg in experiment [2] (setting [3]).
In the case of `c1csc(Cn2c(CC3CCN(CCNc4nccs4)CC3)nc3ccccc32)c1` [Compound 356], the ED50 in experiment [1] was found to be 0.02 mg/kg; in experiment [2] it was 0.08 mg/kg.
Take `CN1CCC(Cc2nc3cccnc3n2Cc2ccc(F)cc2)CC1` [Compound 90]: the ED50 in experiment [1] turned out to be 0.01 mg/kg; in experiment [2] (setting [3]) it was 0.31 mg/kg.
In the case of `Cc1nc2c(NCCN3CCC(Cc4nc5ccccc5n4Cc4ccc(F)cc4)CC3)ncnc2n1C` [Compound 372], the ED50 stood at 0.04 mg/kg in experiment [1] and 0.16 mg/kg in experiment [2] (setting [3]).
The like results for `c1ccc(Cn2c(CC3CCN(CCNc4nccs4)CC3)nc3cccnc32)cc1` [Compound 362] were, in that order, 0.08 mg/kg and 0.63 mg/kg.
For the compound `O=C(CCCN1CCC(Cc2nc3cccnc3n2Cc2ccc(F)cc2)CC1)c1ccc(F)cc1` [Compound 127], the ED50 in experiment [1] amounted to 0.08 mg/kg. The “gastric lesion test ED50” value in experiment [2] (oral, compound 48/80 1 mg/kg i.v., distension and lesions of stomach completely absent in 50% of rats, 1 mg/kg) came out at 0.63 mg/kg body weight.
As for `Nc1nccnc1C(=O)NCCN1CCC(Cc2nc3ccccc3n2Cc2ccc(F)cc2)CC1` [Compound 436, 3-amino-N[2-[4-[[1-[(4-fluorophenyl)methyl]-1H-benzimidazol-2-yl]methyl]-1-piperidinyl]ethyl]-2-pyrazinecarboxamide], the results for the ED50 in experiment [1] and in experiment [2] (setting [3]) were 0.01 mg/kg and 0.63 mg/kg, respectively.
The like results for `Fc1ccc(Cn2c(CC3CCN(CCNc4ccccn4)CC3)nc3ccccc32)cc1` [Compound 499] were, in that order, 0.04 mg/kg and 0.01 mg/kg.
For `Fc1ccc(Cn2c(CC3CCN(CCc4cccs4)CC3)nc3ccccc32)cc1` [Compound 118, 1-[(4-fluorophenyl)methyl]-2-[[1-[2-(2-thienyl)ethyl]-4-piperidinyl]-methyl]-1H-benzimidazole], the ED50 in experiment [1] stood at 0.04 mg/kg; in experiment [2] (setting [3]) it was 0.63 mg/kg.
Turning to `O=C(NCCN1CCC(Cc2nc3ccccc3n2Cc2ccc(F)cc2)CC1)C(=O)c1cccs1` [Compound 439, N[2-[;b 4-[[1-[(4-fluorophenyl)methyl]-1H-benzimidazol-2-yl]methyl]-1-piperidinyl]ethyl]-α-oxo-2-thiopheneacetamide], the figures for the ED50 in experiment [1] and in experiment [2] (setting [3]) were 0.16 mg/kg and 0.31 mg/kg, respectively.
Regarding `Fc1ccc(Cn2c(CC3CCN(CCn4c(=S)[nH]c5ccccc54)CC3)nc3ccccc32)cc1` [Compound 493, 1-[2-[4-[[1-[(4-fluorophenyl)methyl]-1H-benzimidazol-2-yl]methyl]-1-piperidinyl]ethyl]-1,3-dihydro-2H-benzimidazole-2-thione], the ED50 came out at 0.08 mg/kg in experiment [1] and 0.04 mg/kg in experiment [2].
Regarding `Fc1ccc(Cn2c(CC3CCNCC3)nc3ccccc32)cc1` [Compound 47, 1-[(4-fluorophenyl)methyl]-2-(4-piperidinylmethyl)-1H-benzimidazole], the ED50 in experiment [1] was found to be 0.08 mg/kg; in experiment [2] (setting [3]), 0.63 mg/kg.
Regarding `COc1ccc(CCN2CCC(Cc3nc4ccc(OC)cc4n3Cc3ccc(F)cc3)CC2)cc1` [Compound 273], the ED50 in experiment [1] is 0.01 mg/kg; in experiment [2] (setting [3]), 0.31 mg/kg.
Turning to `Fc1ccc(Cn2c(CC3CCN(CCNc4nnc(Cl)c5ccccc45)CC3)nc3ccccc32)cc1` [Compound 381, 4-chloro-N-[2-[4-[[1-[(4-fluorophenyl)methyl]-1H-benzimidazol-2-yl]methyl]-1-piperidinyl]ethyl]-1-phthalazinamine], the ED50 in experiment [1] came out at 0.08 mg/kg; in experiment [2] (setting [3]) it was 0.16 mg/kg.
With `Cn1cnc([N+](=O)[O-])c1N1CCC(N2CCC(Cc3nc4ccccc4n3Cc3ccc(F)cc3)CC2)CC1` [Compound 380, 4-[[1-[(4-fluorophenyl)methyl]-1H-benzimidazol-2-yl]methyl]-1'-(1-methyl-4-nitro-1H-imidazol-5-yl)-[1,4'-bipiperidine]], the results for the ED50 in experiment [1] and in experiment [2] (setting [3]) were 0.31 mg/kg and 0.63 mg/kg, respectively.
Take `Cc1nc2ccccn2c(=O)c1CCN1CCC(Cc2nc3ccccc3n2Cc2ccco2)CC1` [Compound 218]: the ED50 in experiment [1] and in experiment [2] was 0.04 mg/kg throughout.
Turning to `Nc1ccccc1C(=O)NCCN1CCC(Cc2nc3ccccc3n2Cc2cccs2)CC1` [Compound 478, 2-amino-N-[2-[4-[[1-(2-thienylmethyl)-1H-benzimidazol-2-yl]methyl]-1-piperidinyl]ethyl]benzamide], the ED50 was 0.02 mg/kg in experiment [1] and 0.04 mg/kg in experiment [2].
For the compound `COc1ncccc1C(=O)NCCN1CCC(Cc2nc3ccccc3n2Cc2ccc(F)cc2)CC1` [Compound 438, N-[2-[4-[[1-[(4-fluorophenyl)methyl]-1H-benzimidazol-2-yl]methyl]-1-piperidinyl]ethyl]-2-methoxy-3-pyridinecarboxamide], the ED50 in experiment [1] came out at 0.08 mg/kg; in experiment [2] (setting [3]), 0.16 mg/kg.
With `Fc1ccc(Cn2c(CC3CCN(CCNc4ncccn4)CC3)nc3ccccc32)cc1` [Compound 374], the ED50 in experiment [1] and in experiment [2] (setting [3]) was 0.02 mg/kg in each case.
Regarding `CC(C)NC(=O)CCN1CCC(Cc2nc3cccnc3n2Cc2ccc(F)cc2)CC1` [Compound 143, 4-[[3-[(4-fluorophenyl)methyl]-3H-imidazo[4,5-b]pyridin-2-yl]methyl]-N-(1-methylethyl)-1-piperidinepropanamide], the ED50 in experiment [1] is 0.04 mg/kg; in experiment [2] (setting [3]), 0.63 mg/kg.
Turning to `O=[N+]([O-])c1cc[n+]([O-])cc1NCCN1CCC(Cc2nc3ccccc3n2Cc2ccc(F)cc2)CC1` [Compound 379, N-[2-[4-[[1-[(4-fluorophenyl)methyl]-1H-benzimidazol-2-yl]methyl]-1-piperidinyl]ethyl]-4-nitro-3-pyridinamine, 1-oxide], the values for the ED50 in experiment [1] and in experiment [2] (setting [3]) were 0.08 mg/kg and 0.31 mg/kg, respectively.
The like results for `Fc1ccc(Cn2c(CC3CCN(CCNc4nc5ccccc5s4)CC3)nc3ccccc32)cc1` [Compound 367] were, in that order, 0.16 mg/kg and 0.16 mg/kg.
For the compound `CC(=O)N(CCN1CCC(Cc2nc3ccccc3n2Cc2ccc(F)cc2)CC1)c1ncccn1` [Compound 510, N-[2-[4-[[1-[(4-fluorophenyl)methyl]-1H-benzimidazol-2-yl]methyl]-1-piperidinyl]ethyl]-N-(2-pyrimidinyl)acetamide], the values for the ED50 in experiment [1] and in experiment [2] (setting [3]) were 0.02 mg/kg and 0.16 mg/kg, respectively.
`Cc1nc2ccccn2c(=O)c1CCN1CCC(Cc2nc3cccnc3n2Cc2ccco2)CC1` [Compound 180]: the results for the ED50 in experiment [1] and in experiment [2] (setting [3]) were 0.01 mg/kg and 0.31 mg/kg, respectively.
Taken in the same sequence, the figures for `COc1ccc(CCN2CCC(Cc3nc4ccccc4n3Cc3ccoc3)CC2)cc1` [Compound 260] were 0.01 mg/kg and 0.63 mg/kg.
Regarding `Fc1ccc(Cn2c(CC3CCN(C4CCN(c5ncccn5)CC4)CC3)nc3ccccc32)cc1` [Compound 347, 4-[[1-[(4-fluorophenyl)methyl]-1H-benzimidazol-2-yl]methyl]-1'-(2-pyrimidinyl)-[1,4'-bipiperidine]], the ED50 worked out at 0.08 mg/kg in experiment [1] and 0.63 mg/kg in experiment [2] (setting [3]).
Taken in the same sequence, the figures for `COc1ccc(CCN2CCC(Cc3nc4cccnc4n3Cc3ccco3)CC2)cc1` [Compound 189] were 0.02 mg/kg and 0.63 mg/kg.
`Cc1nc2ccccn2c(=O)c1CCN1CCC(Cc2nc3cccnc3n2Cc2ccc(F)cc2)CC1` [Compound 177]: the ED50 in experiment [1] stood at 0.04 mg/kg; in experiment [2] (setting [3]), 0.31 mg/kg.
The like results for `O=c1[nH]c2ccccc2c(=O)n1CCN1CCC(Cc2nc3ccccc3n2Cc2cscn2)CC1` [Compound 187] were, in that order, 0.04 mg/kg and 0.31 mg/kg.
For `c1cnc(NCCN2CCC(Cc3nc4ccccc4n3Cc3cccs3)CC2)nc1` [Compound 336], the figures for the ED50 in experiment [1] and in experiment [2] were 0.01 mg/kg and 0.08 mg/kg, respectively.
